Measured values: paper PMC10945332, “Precision peptide theranostics: developing N- to C-terminus optimized theranostics targeting cholecystokinin-2 receptor” (Theranostics, 2024)
Read-outs that look alike come from different tables or passages of the source. Blank lines part the entries; values can stand above or below the compound they belong to. Where a SMILES comes first, the peptide text is derived from it. [ ]: non-standard residue; d: D form. The star is where a group is joined. DOTA = O=C(O)CN1CCN(CC(=O)O)CCN(CC(=O)*)CCN(CC(=O)O)CC1; 1Nal = N[C@@H](Cc1cccc2ccccc12)C(=O)O; NMeNle = CCCC[C@H](NC)C(=O)O; Sar = CNCC(=O)O

Assays:
human CCK2R = target: T1, human CCK2R (Homo sapiens, UniProt P32239); test: Competitive binding against [177Lu]Lu-DOTA-CP04 in A431-CCK2R cells; conditions: for IC50: N-terminal free linear peptides, vs [177Lu]Lu-DOTA-CP04 in A431-CCK2R cells, average of 2-4 biological replicates, read-out: IC50
T1 construct: stably transfected to over-express the human full-length CCK2R (A431-CCK2R); expressed in transfected cells
T1 sequence (P32239 1-447): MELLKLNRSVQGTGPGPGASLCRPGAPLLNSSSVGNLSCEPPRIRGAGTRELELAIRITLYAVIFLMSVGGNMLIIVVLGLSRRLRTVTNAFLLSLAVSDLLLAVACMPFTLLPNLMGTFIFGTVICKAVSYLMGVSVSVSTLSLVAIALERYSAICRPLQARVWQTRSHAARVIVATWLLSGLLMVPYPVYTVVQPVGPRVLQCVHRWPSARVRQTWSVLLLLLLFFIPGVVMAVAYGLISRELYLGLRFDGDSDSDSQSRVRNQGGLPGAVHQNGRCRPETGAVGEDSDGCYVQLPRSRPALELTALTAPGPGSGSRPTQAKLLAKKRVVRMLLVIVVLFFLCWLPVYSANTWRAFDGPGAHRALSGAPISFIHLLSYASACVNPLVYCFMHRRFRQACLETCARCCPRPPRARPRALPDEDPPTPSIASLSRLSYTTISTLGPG
Description: Materials and Methods: Biology […]
In Vitro CCK2R-Ligand Competitive Binding Assays
All CCK2R binding experiments were conducted using A431 (human epidermoid carcinoma) […]
cells stably transfected to over-express the human full-length CCK2R (A431-CCK2R) (gifted […]
by Dr. Elisabeth von Guggenberg, Medizinische Universität Innsbruck).[41] As a negative […]
control, A431 cells stably transfected with an empty vector were analysed simultaneously […]
(A431-EV). All A431 cells were maintained in DMEM (Gibco, Australia) media supplemented […]
with 10% foetal calf serum and 250 µg/mL G418 as described previously.[32]
The affinity of all peptides for the CCK2R was evaluated using competitive binding assays […]
Briefly, 48 hours before the experiment […]
cells were plated at a density of 300,000 cells per well in 12 well plates. On the day of the […]
experiment, linear peptides were diluted in DMEM supplemented with 1% foetal calf serum to […]
DOTA-CP04 was added to each dilution. Cells were washed twice in ice-cold binding buffer […]
(DMEM supplemented with 1% foetal calf serum) and resuspended in 1 mL of the pre-prepared […]
peptide mix before being incubated at room temperature for 1 hour. Post-incubation the media […]
was removed and kept for analysis (unbound fraction) and the cells were washed twice in ice- […]
cold PBS which was pooled with the unbound fraction. Finally, 1 M NaOH (150µL) was added […]
to the wells and allowed to incubate for 5 min before lysates were collected (bound fraction).
A small volume of lysate was kept aside to determine protein concentration using the Pierce® BCA protein assay kit (Thermo Fisher, Australia). All samples were analysed using the Perkin […]
normalised according to protein concentration. Half maximal inhibitory concentration (IC50) was determined using nonlinear regression calculated using Gr aphPad Prism Software (GraphPad Software, California, USA). […]

in vivo = conditions: female, NSG, mouse, iv, total radioactivity
Description: (§1) In order to assess these promising ligands as potential theranostics, the library of [^68Ga]Ga-DOTA-peptides was evaluated using static small animal PET imaging and quantifying biodistribution studies. This study was performed to investigate tumor uptake as well as the accumulation of radioligands in other organs. Mice bearing A431-CCK2R tumors were imaged at 1- and 2 hours post tracer injection, and tracer biodistribution was evaluated at the 1 hour and 2.5 hour time points to quantify tumor uptake and retention. […]
(§2) Small Animal PET Imaging and Biodistribution Studies
(§3) Female NSG mice (age 11-14 weeks) were sourced from Animal Resources Centre, (Canning Vale, Western Australia) and were inoculated subcutaneously on the right flank with 1-3 x 106 […]
(§4) A431-CCK2R cells in PBS:Matrigel (1:1). […]
(§5) Mice were assigned to imaging and/or biodistribution groups (tumour volumes: 119-327 mm3).
(§6) The respective 68Ga labelled tracer (1.63–3.81 MBq, 170µL, 13.7–14.2 pmoles) containing vehicle solution (75µL, DMSO:Tween 80: water, 2:2:6 v/v/v) was then administered to mice intravenously via tail vein injection. Three mice were euthanized for biodistribution 1 hour post injection (n=3) and selected tissues were excised, weighed, and counted using a Capintec (Captus 4000e) gamma counter. Three mice were anaesthetised using 1.5% isoflurane and imaged at 1 hour (n=3) and 2 hours (n=3) with a G8 Small Animal PET/CT scanner (Perkin […]
(§7) Elmer/Sofie Biosciences). A 10 min static PET scan was acquired, followed immediately by a CT scan (Supplementary Data, pS51–S55). PET images were acquired using the G8 acquisition engine software and reconstructed using a 3D maximal likelihood and expectation maximization (ML-EM) algorithm. PET images were analysed using VivoQuant software, version 3.0 (inviCRO Imaging Services and Software) to quantify maximum standardised uptake value in regions of interest (SUVmax). Background regions for imaging experiments were calculated by quantitating mean standardised uptake value (SUVmean) of the abdomen and gut region. The region of interest was selected due to low uptake in abdomen/gut during imaging. After imaging the 2-hour time point, mice organs were harvested for biodistribution […]
(§8) For blocking CCK2R binding a solution of N-[(3R)-2,3-Dihydro-1-[2-(2-methylphenyl)-2-oxoethyl]-2-oxo-5-phenyl-1H-1,4-benzodiazepin-3-yl]-N′-(3-methylphenyl)-urea (YM022; Sigma Aldrich) was used. YM022 (75µL of a 1 mg/ml solution constituting DMSO:Tween 80: water, 2:2:6 v/v/v) was added to the respective 68Ga labelled tracer (1.41–3.61 MBq, 100 µL, 13.7–14.2 pmoles) and this mixture ([…]) was administered in three mice intravenously via tail vein injection and organs harvested at 1 hour post injection for biodistribution analysis, as above.
(§9) All animal experiments were performed with the approval of the Peter MacCallum Cancer Centre Animal Experimentation Ethics Committee and in accordance with the Australian code for the care and use of animals for scientific purposes, 8th Edition, 2013 (AEEC Approval

[1] = mouse, in vivo
Description: as §1, §2, §3, §4, §5, §6, §7, §8, §9

[2] = assay type: in vitro ADME, mouse; conditions: mouse, tissue homogenate
Description: Metabolic stability is an important determinant of the efficacy of peptide radiopharmaceuticals and their progression as promising theranostic candidates. In vitro, metabolic degradation through hepatic and renal enzymes can be assessed by utilizing liver and kidney tissue homogenates. Radiolabeled peptides [^68Ga]Ga-DOTA-GA4, and D-Ala substituted variants [^68Ga]Ga-DOTA-GA7, [^68Ga]Ga-DOTA-GA11-GA13 were incubated in liver and kidney mouse homogenates, in human serum at 37°C, and in HEPES buffer (pH 7.4) as a negative control. Following a time course experiment, the metabolites were analyzed using HPLC to quantify the % breakdown of the respective parent peptide. […]
To assess the stability of 68Ga radiolabeled peptides against enzymatic degradation, duplicate samples (750-900 pmol/mL, 2-5MBq) were incubated at 37 ℃ with pooled human serum, 15% […]
mouse kidney homogenate, 30% mouse liver homogenate or 20 mM HEPES, pH 7.3 (control).
Human blood was collected, and serum prepared using SSTII advance vacutainer tubes according to the manufacturer’s instructions (Becton Dickinson, New Jersey, USA). Mouse kidney and liver homogenates were prepared by washing the tissues in ice-cold HEPES buffer, pH 7.3 and placing them in pre-chilled tubes containing HEPES buffer and 2.38 mm metal beads (Mo-Bio Laboratories, Hilden, Germany). Tissues were homogenised using the PowerLyzer24 homogeniser (Qiagen, Hilden, Germany) according to the manufacturer’s instructions. 68Ga radiolabeled peptides were then incubated with the various lysates at 37 ℃ and samples were collected at 15, 30, 60 and 90 min. Reactions were terminated by addition of an equal volume of acetonitrile and centrifugation for 2 min at 15,000 rpm. Supernatants were diluted in water before being analysed by HPLC using a Kinetex C18 XB column (5µm

[3] = assay type: physicochemical
Description: Lipophilicity, expressed as the octanol-water partition coefficient, constitutes an important property in drug action, influencing both pharmacokinetic and pharmacodynamics processes. The distribution coefficient (LogD7.4) of [^68Ga]Ga-DOTA-peptides was determined by measuring radioactivity distribution in the aqueous phase (phosphate buffer pH7.4) and the organic phase (n-octanol). […]
To determine the distribution coefficient (logD 7.4), 68Ga radiolabeled peptides [68Ga]Ga-DOTA-GA4, [68Ga]Ga-DOTA-GA7, and [68Ga]Ga-DOTA-GA11–GA13 were diluted to approximately 20 pmol/mL in PBS (pH 7.4) and an equal volume of n-octanol was added. The mixture was vortexed vigorously for 10 cycles of 1 min at room temperature before being centrifuged for 6 min to separate the two phases. Equal volumes from each phase were aliquoted into individual counting tubes and analysed for 1 min using the Perkin Elmer 2480 Wizard2™ gamma counter (PerkinElmer, Massachusetts, USA). The distribution coefficient was calculated using the following equation LogD = […]. […]

IC50 (human CCK2R): 1.23 nM
SMILES: CCCC[C@@H](C(=O)N[C@@H](CC(=O)O)C(=O)N[C@@H](Cc1cccc2ccccc12)C(N)=O)N(C)C(=O)[C@H](Cc1c[nH]c2ccccc12)NC(=O)CN(C)C(=O)[C@H](Cc1ccc(O)cc1)NC(=O)[C@H](C)NC(=O)[C@@H](CCC(=O)O)NC(=O)[C@@H](CCC(=O)O)NC(=O)[C@@H](CCC(=O)O)NC(=O)[C@@H](CCC(=O)O)NC(=O)[C@@H](C)NC(=O)[C@H](N)CCC(=O)O [GA6] (H-[dE][dA][dE][dE][dE][dE]AY[Sar]W[NMeNle]D[1Nal]-NH2)

SMILES: CCCC[C@@H](C(=O)N[C@@H](CC(=O)O)C(=O)N[C@@H](Cc1cccc2ccccc12)C(N)=O)N(C)C(=O)[C@H](Cc1c[nH]c2ccccc12)NC(=O)CN(C)C(=O)[C@H](Cc1ccc(O)cc1)NC(=O)[C@H](C)NC(=O)[C@@H](CCC(=O)O)NC(=O)[C@@H](CCC(=O)O)NC(=O)[C@@H](CCC(=O)O)NC(=O)[C@@H](C)NC(=O)[C@@H](CCC(=O)O)NC(=O)[C@H](N)CCC(=O)O [GA7] (H-[dE][dE][dA][dE][dE][dE]AY[Sar]W[NMeNle]D[1Nal]-NH2)
IC50 (human CCK2R): 0.184 nM | fold improvement of activity over CP04 (human CCK2R; linear peptides): greater than 10 fold | fold improvement of affinity over GA1 (human CCK2R; linear peptides): ~2 fold

IC50 (human CCK2R): 1.62 nM
SMILES: CCCC[C@@H](C(=O)N[C@@H](CC(=O)O)C(=O)N[C@@H](Cc1cccc2ccccc12)C(N)=O)N(C)C(=O)[C@H](Cc1c[nH]c2ccccc12)NC(=O)CN(C)C(=O)[C@H](Cc1ccc(O)cc1)NC(=O)[C@H](C)NC(=O)[C@@H](CCC(=O)O)NC(=O)[C@@H](CCC(=O)O)NC(=O)[C@@H](C)NC(=O)[C@@H](CCC(=O)O)NC(=O)[C@@H](CCC(=O)O)NC(=O)[C@H](N)CCC(=O)O [GA8] (H-[dE][dE][dE][dA][dE][dE]AY[Sar]W[NMeNle]D[1Nal]-NH2)

IC50 (human CCK2R): 1.62 nM
SMILES: CCCC[C@@H](C(=O)N[C@@H](CC(=O)O)C(=O)N[C@@H](Cc1cccc2ccccc12)C(N)=O)N(C)C(=O)[C@H](Cc1c[nH]c2ccccc12)NC(=O)CN(C)C(=O)[C@H](Cc1ccc(O)cc1)NC(=O)[C@H](C)NC(=O)[C@@H](C)NC(=O)[C@@H](CCC(=O)O)NC(=O)[C@@H](CCC(=O)O)NC(=O)[C@@H](CCC(=O)O)NC(=O)[C@@H](CCC(=O)O)NC(=O)[C@H](N)CCC(=O)O [GA10] (H-[dE][dE][dE][dE][dE][dA]AY[Sar]W[NMeNle]D[1Nal]-NH2)

tissue to tissue ratio at 1 h (in vivo): 17.3 ± 1.84 | SUV at 1 h (in vivo; SUVmax): 0.65 SUV | SUV at 2 h (in vivo; SUVmax): 0.61 SUV | tissue uptake at 1 h ([1]; 3 mg/kg, Uptake in A431-CCK2R Tumors, 1 hr Blocked): 2.76 ± 0.14 %ID/g | tissue uptake at 1 h ([1]; Uptake in A431-CCK2R Tumors, 1 hr): 5.71 ± 1.5 %ID/g | tissue uptake at 2.5 h ([1]; Uptake in A431-CCK2R Tumors, 2.5 hr): 7.36 ± 1.16 %ID/g | tissue uptake at 1 h ([1]; Uptake in Organs: Blood): 0.68 ± 0.31 %ID/g | tissue uptake at 1 h ([1]; Uptake in Organs: Heart): 0.3 ± 0.02 %ID/g | tissue uptake at 1 h ([1]; Uptake in Organs: Kidneys): 8.67 ± 0.8 %ID/g | tissue uptake at 1 h ([1]; Uptake in Organs: Liver): 0.3 ± 0.01 %ID/g | tissue uptake at 1 h ([1]; Uptake in Organs: Lungs): 0.57 ± 0.03 %ID/g | tissue uptake at 1 h ([1]; Uptake in Organs: Muscle): 0.12 ± 0.02 %ID/g | tissue uptake at 1 h ([1]; Uptake in Organs: Spleen): 0.24 ± 0.02 %ID/g | tissue uptake at 1 h ([1]; Uptake in Organs: Stomach): 2.22 ± 0.14 %ID/g | half-life ([2]; Half-life (t1/2) in Kidney Homogenate): 226 min | half-life ([2]; Half-life (t1/2) in Liver Homogenate): 352 min | logD [3]: -2.88 ± 0.09
SMILES: CCCC[C@@H](C(=O)N[C@@H](CC(=O)O)C(=O)N[C@@H](Cc1cccc2ccccc12)C(N)=O)N(C)C(=O)[C@H](Cc1c[nH]c2ccccc12)NC(=O)CN(C)C(=O)[C@H](Cc1ccc(O)cc1)NC(=O)[C@H](C)NC(=O)[C@@H](CCC(=O)O)NC(=O)[C@@H](CCC(=O)O)NC(=O)[C@@H](CCC(=O)O)NC(=O)[C@@H](C)NC(=O)[C@@H](CCC(=O)O)NC(=O)[C@@H](CCC(=O)O)NC(=O)CN1CCN(CC(=O)O)CCN(CC(=O)O)CCN(CC(=O)O)CC1 [[^68Ga]Ga-DOTA-GA7, metal not drawn] ({DOTA}-[dE][dE][dA][dE][dE][dE]AY[Sar]W[NMeNle]D[1Nal]-NH2)
